According to patent US12030879B2, “Sulfonyl acetamides as NLRP3 inhibitors” (Inflazome Limited, priority 2018, dated 2024):

Legend:
[1] = PK protocol, intravenous administration in rats; assay type: in vivo; conditions: rat, plasma, male Sprague Dawley rats, 1 mg/kg; for Vd: read-out: Vdss
Method: Pharmacokinetic parameters were determined in male Sprague Dawley rats (Vital River Laboratory Animal Technology Co Ltd, Beijing, China, 7-9 weeks old). Animals were group housed during the study and maintained under a 12 h light/dark cycle.
For intravenous administration, compounds were formulated as a solution in DMSO:PBS [10:90] in 2 mL/kg dosing volume and administered via tail vein.
Serial blood samples (about 200 μL) were taken from each animal at each of 8 time-points post dose (0.083, 0.25, 0.5, 1, 2, 4, 8 and 24 h). Samples were held on ice for no longer than 30 minutes before centrifugation (5,696 rpm (3,000 g) for 15 minutes) for plasma generation. Plasma was frozen on dry ice prior to bioanalysis. PK parameters were generated from LC-MS/MS data using Phoenix WinNonlin 6.3 software.

[2] = target: T1, NLRP3 (Homo sapiens, UniProt Q96P20); test: THP-1 cells pyroptosis assay; assay type: cell-based; conditions: LPS 1 μg/ml, compound 3 hrs, nigericin 5 μM 1 hr, resazurin readout
T1 construct: Seed THP-1 cells (25,000 cells/well) containing 1.0 μg/ml LPS in 40 μl of RPMI medium; host or cells: THP-1 cells
T1 sequence (Q96P20 whole entry): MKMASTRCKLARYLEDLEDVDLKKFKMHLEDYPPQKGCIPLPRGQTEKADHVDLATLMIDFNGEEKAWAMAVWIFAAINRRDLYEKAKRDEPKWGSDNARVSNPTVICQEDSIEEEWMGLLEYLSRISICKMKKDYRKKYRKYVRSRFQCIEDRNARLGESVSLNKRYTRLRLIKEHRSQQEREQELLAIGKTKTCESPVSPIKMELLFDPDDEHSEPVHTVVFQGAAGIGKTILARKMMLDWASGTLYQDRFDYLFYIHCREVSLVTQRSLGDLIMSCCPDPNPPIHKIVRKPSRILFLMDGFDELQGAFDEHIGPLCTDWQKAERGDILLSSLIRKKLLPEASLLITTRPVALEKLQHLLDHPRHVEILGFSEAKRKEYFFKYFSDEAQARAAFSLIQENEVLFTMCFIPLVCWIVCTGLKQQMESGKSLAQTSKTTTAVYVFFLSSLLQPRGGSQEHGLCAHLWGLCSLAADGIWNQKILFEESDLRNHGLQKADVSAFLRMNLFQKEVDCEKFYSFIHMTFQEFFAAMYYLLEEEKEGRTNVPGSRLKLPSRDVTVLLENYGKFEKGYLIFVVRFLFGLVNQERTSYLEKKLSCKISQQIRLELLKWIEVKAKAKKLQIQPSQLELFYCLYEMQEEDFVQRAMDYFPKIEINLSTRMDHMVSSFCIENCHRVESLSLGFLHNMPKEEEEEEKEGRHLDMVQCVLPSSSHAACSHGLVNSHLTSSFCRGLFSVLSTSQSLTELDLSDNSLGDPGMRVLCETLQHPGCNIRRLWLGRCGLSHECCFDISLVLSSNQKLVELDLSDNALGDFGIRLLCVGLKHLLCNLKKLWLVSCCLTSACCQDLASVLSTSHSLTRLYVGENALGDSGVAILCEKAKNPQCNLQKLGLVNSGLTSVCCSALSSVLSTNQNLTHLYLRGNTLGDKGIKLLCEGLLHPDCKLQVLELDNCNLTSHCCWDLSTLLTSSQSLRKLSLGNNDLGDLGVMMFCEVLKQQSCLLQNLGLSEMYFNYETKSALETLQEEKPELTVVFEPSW
Summary of the method: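 LPS-primed (1 μg/ml) THP-1 cells in serum-free RPMI were treated 3 h with compound (8-point half-log, top 10 μM; 0.1% DMSO), then with 5 μM nigericin for 1 h at 37°C. Viability was read by 100 μM resazurin (ex 560/em 590 nm) after 1–2 h. IC50 came from 4-parameter nonlinear regression.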

| AUC [1] | clearance [1] | half-life [1] | Vd [1] | IC50 [2] | SMILES |
| --- | --- | --- | --- | --- | --- |
| 926 ng·h/mL | 29.1 mL/min/kg | 19.8 h | 12.2 L/kg | ≤ 500 nM | COc1cc(-c2ccc3c(c2CC(=O)NS(=O)(=O)c2ccc(C(C)(C)O)cc2C)CCC3)ccn1 [Example 85, N-((4-(2-Hydroxypropan-2-yl)-2-methylphenyl)sulfonyl)-2-(5-(2-methoxypyridin-4-yl)-2,3-dihydro-1H-inden-4-yl)acetamide] |
| 1260 ng·h/mL | 13.3 mL/min/kg | 7.2 h | 6.72 L/kg | ≤ 1000 nM | COc1cc(-c2cc(F)cc(C(C)C)c2CC(=O)NS(=O)(=O)c2ccc(C(C)C)cc2)ccn1 [Example 110, 2-(4-Fluoro-2-isopropyl-6-(2-methoxypyridin-4-yl)phenyl)-N-((4-isopropylphenyl)sulfonyl)acetamide] |
